From US8802694B2, “3,6-diazabicyclo[3.1.1]heptanes as neuronal nicotinic acetycholine receptor ligands” (Targacept, Inc., priority 2009, dated 2014) come the findings set out here.

Molecules are shown by their SMILES.

The target of one experiment is T1, α6β3β4α5 (Homo sapiens, UniProt P30926+Q15825).
T1 construct: host or cells: SH-EP1
In words: Competition binding to α6β3β4α5 receptors in membranes of SH-EP1/α6β3β4α5 cells ([3H]-epibatidine). The note with it: membrane competition binding, read-out: α6β3β4α5 Ki.
With `O=C(C1C2C3CCC(C3)C12)N1CC2CC(C1)N2` (stereo not shown), the Ki (as a rule, the equilibrium dissociation constant of an inhibitor or competing ligand from its target) is 22000 nM.
In the case of `CCC1(CC)CC1C(=O)N1C2CNCC1C2` (stereo not shown), the inhibitory constant (Ki) turned out to be 4400 nM.
Still for that read-out and setting: in the case of `CCC1(CC)CC1C(=O)N1CC2CC(C1)N2` (stereo not shown) it was 470 nM; in that of `O=C([C@@H]1C[C@H]1c1ccccc1)N1C2CNCC1C2`, 350 nM.
For `O=C(CCC(F)(F)F)N1C2CNCC1C2`, the Ki was determined as 1500 nM.
For `O=C(C1C2CCCCC21)N1C2CNCC1C2` (stereo not shown), the Ki was found to be 6400 nM.
The same measure, in the same setting: in the case of `O=C([C@@H]1C[C@H]2C=C[C@H]1C2)N1C2CNCC1C2` it was 1300 nM; in that of `O=C(NCc1ccc(Cl)cc1Cl)N1C2CNCC1C2`, 21000 nM; in that of `C[C@@H]1C(C(=O)N2C3CNCC2C3)[C@@H]1C` (stereo partly shown), 2400 nM.
`O=C(C1CC12CCCC2)N1C2CNCC1C2` (stereo not shown): the Ki was 610 nM.
Same read-out and setting: in the case of `C[C@@H]1C[C@@H]1C(=O)N1C2CNCC1C2` it was 30000 nM.

Still in this experiment, the particulars now being: α6β3β4α5 Ki, membrane competition binding.
`O=C([C@H]1C[C@@H]1F)N1CC2CC(C1)N2` [drawing 111] yielded a Ki of 120 nM.
The compound `CC1(C)CC1C(=O)N1CC2CC(C1)N2` (stereo not shown) gave a Ki of 120 nM.
`CC(C)C(=O)N1CC2CC(C1)N2` [3-isopropylcarbonyl-3,6-diazabicyclo[3.1.1]heptane] yielded a Ki of 830 nM.
The same measure, in the same setting: in the case of `O=C([C@@H]1C[C@H]1c1ccccc1)N1CC2CC(C1)N2` it was 64 nM; in that of `O=C([C@@H]1C[C@H]1F)N1CC2CC(C1)N2`, 91 nM.
For `C[C@@H]1C[C@H]1C(=O)N1CC2CC(C1)N2`, the affinity corresponds to a Ki of 95 nM.
The compound `O=C([C@@H]1C[C@@H]1F)N1CC2CC(C1)N2` came in with a Ki of 280 nM.
Compound `O=C(C1CC12CCC2)N1CC2CC(C1)N2` (stereo not shown) registered a Ki of 50 nM.
`CC1CC1C(=O)N1CC2CC(C1)N2` (stereo not shown) displayed a Ki of 120 nM.
The same measure, in the same setting: in the case of `O=C(C1CC1)N1CC2CC(C1)N2` [3-cyclopropylcarbonyl-3,6-diazabicyclo[3.1.1]heptane] it was 140 nM; in that of `O=C([C@H]1C[C@H]1F)N1CC2CC(C1)N2` [drawing 110], 530 nM.
On the same count and under the same terms, as for `O=C(C1CC12CCCC2)N1CC2CC(C1)N2` (stereo not shown), the figure is 96 nM; as for `C[C@H]1C[C@@H]1C(=O)N1CC2CC(C1)N2` [drawing 157], 2600 nM; as for `O=C(NCc1ccc(Cl)cc1Cl)N1CC2CC(C1)N2`, 38 nM.
Compound `[2H]C1([2H])C([2H])([2H])C1([2H])C(=O)N1CC2CC(C1)N2` returned a Ki of 120 nM.
In the case of `O=C([C@H]1C[C@@H]1F)N1CC2CC(C1)N2` [drawing 165], affinity was put at a Ki of 780 nM.

Another experiment deals with T2, Human α4β2 (Homo sapiens, UniProt P17787+P43681).
T2 construct: host or cells: SH-EP1
In words: Competition binding to human α4β2 receptors in membranes of SH-EP1/human α4β2 cells ([3H]-nicotine). Particulars: Human α4β2 Ki, membrane competition binding.
In the case of `O=C([C@H]1C[C@@H]1F)N1CC2CC(C1)N2` [drawing 111], the Ki was found to be 4.5 nM.
In turn, `CC1(C)CC1C(=O)N1CC2CC(C1)N2` (stereo not shown) had a Ki of 5.3 nM.
Compound `CC(C)C(=O)N1CC2CC(C1)N2` [3-isopropylcarbonyl-3,6-diazabicyclo[3.1.1]heptane] gave a Ki of 220 nM.
In turn, `O=C([C@@H]1C[C@H]1c1ccccc1)N1CC2CC(C1)N2` showed a Ki of 4.7 nM.
On the same count and under the same terms, as for `O=C([C@@H]1C[C@@H]1F)N1CC2CC(C1)N2`, the figure is 1.8 nM; as for `O=C(C1CC12CCC2)N1CC2CC(C1)N2` (stereo not shown), 2.6 nM.
In the case of `CC1CC1C(=O)N1CC2CC(C1)N2` (stereo not shown), the affinity, expressed as Ki, was 5 nM.
On the same count and under the same terms, in the case of `O=C([C@H]1C[C@H]1F)N1CC2CC(C1)N2` [drawing 110] it was 5.2 nM.
`O=C(C1CC12CCCC2)N1CC2CC(C1)N2` (stereo not shown) returned a Ki of 26 nM.
`C[C@H]1C[C@@H]1C(=O)N1CC2CC(C1)N2` [drawing 157] had a Ki of 7.6 nM.
Consider `O=C(NCc1ccc(Cl)cc1Cl)N1CC2CC(C1)N2`, for which the affinity corresponds to a Ki of 48 nM.
Compound `[2H]C1([2H])C([2H])([2H])C1([2H])C(=O)N1CC2CC(C1)N2` gave a Ki of 0.49 nM.
`CCC1(CC)CC1C(=O)N1CC2CC(C1)N2` (stereo not shown) showed a Ki of 71 nM.
Take `O=C([C@H]1C[C@@H]1F)N1CC2CC(C1)N2` [drawing 165]: the Ki came out at 4.6 nM.
For `O=C([C@@H]1C[C@H]1c1ccccc1)N1C2CNCC1C2`, the Ki amounted to 30 nM.

Still in this experiment, the particulars now being: membrane competition binding, read-out: Human α4β2 Ki.
As to `O=C([C@@H]1C[C@H]1F)N1CC2CC(C1)N2`, the Ki was 1 nM.
As for `C[C@@H]1C[C@H]1C(=O)N1CC2CC(C1)N2`, the Ki was found to be 1 nM.
`O=C(C1CC1)N1CC2CC(C1)N2` [3-cyclopropylcarbonyl-3,6-diazabicyclo[3.1.1]heptane]: the Ki was 3 nM.
Consider `O=C(C1C2C3CCC(C3)C12)N1CC2CC(C1)N2` (stereo not shown), for which the Ki came to 1300 nM.
Take `CCC1(CC)CC1C(=O)N1C2CNCC1C2` (stereo not shown): the Ki was determined as 850 nM.
Regarding `O=C(CCC(F)(F)F)N1C2CNCC1C2`, the Ki worked out at 180 nM.
For `O=C(C1C2CCCCC21)N1C2CNCC1C2` (stereo not shown), the Ki was determined as 310 nM.
`O=C([C@@H]1C[C@H]2C=C[C@H]1C2)N1C2CNCC1C2`: the Ki was found to be 300 nM.
`O=C(NCc1ccc(Cl)cc1Cl)N1C2CNCC1C2`: the Ki worked out at 1100 nM.
Consider `C[C@@H]1C(C(=O)N2C3CNCC2C3)[C@@H]1C` (stereo partly shown), for which the Ki was found to be 610 nM.
On the same count and under the same terms, as for `O=C(C1CC12CCCC2)N1C2CNCC1C2` (stereo not shown), the figure is 280 nM; as for `C[C@@H]1C[C@@H]1C(=O)N1C2CNCC1C2`, 820 nM.

A further experiment has as its target T3, Rat α4β2 (Rattus norvegicus, UniProt P09483+P12390).
T3 construct: Rat cortices were obtained from Analytical Biological Services; tissue Analytical Biological Services, Incorporated (ABS, Wilmington, Del.); host or cells: rat cortex (female Sprague-Dawley)
In words: Competition binding to rat α4β2 receptors in rat cortical membranes. The note with it: Rat α4β2 Ki, rat cortex membranes. As for the experimental part: Preparation of membranes from rat tissues. Rat cortices were obtained from Analytical Biological Services, Incorporated (ABS, Wilmington, Del.). Tissues were dissected from female Sprague-Dawley rats, frozen and shipped on dry ice. Tissues were stored at −20° C. until needed for membrane preparation. […] The resulting homogenate was centrifuged at 40,000 g for 20 minutes at 4° C. and the resulting pellet was resuspended in 20 volumes of ice-cold water. After 60-minute incubation at 4° C., a new pellet was collected by centrifugation at 40,000 g for 20 minutes at 4° C. The final pellet was resuspended in preparative buffer and stored at −20° C. On the day of the assay, tissue was thawed, centrifuged at 40,000 g for 20 minutes and then resuspended in PBS (Dulbecco's Phosphate Buffered Saline, Life Technologies, pH 7.4) to a final concentration of 2-3 mg protein/mL. Protein concentrations were determined using the Pierce BCA Protein Assay kit (Pierce Biotechnology, Rockford, Ill.), with bovine serum albumin as the standard.
Competition binding to receptors in membrane preparations. […] In brief, membranes were reconstituted from frozen stocks (approximately 0.2 mg protein) and incubated for 2 h on ice in […] assay buffer (PBS) in the presence of competitor compound (0.001 nM to […]) and radioligand. [^3H]-nicotine (L-(−)-[N-methyl-3H]-nicotine, 69.5 Ci/mmol, Perkin-Elmer Life Sciences) was used for human α4β2 binding studies. [^3H]-epibatidine (52 Ci/mmol, Perkin-Elmer Life Sciences) was used for binding studies at the other receptor subtypes. […] Filters were washed 3 times and the radioactivity retained was determined by liquid scintillation counting.
Binding data analysis. Binding data were expressed as percent total control binding. Replicates for each point were averaged and plotted against the log of drug concentration.
Turning to `O=C([C@H]1C[C@@H]1F)N1CC2CC(C1)N2` [drawing 111], the Ki came to 0.81 nM.
Compound `CC1(C)CC1C(=O)N1CC2CC(C1)N2` (stereo not shown) showed a Ki of 6.7 nM.
Still for that read-out and setting: in the case of `CC(C)C(=O)N1CC2CC(C1)N2` [3-isopropylcarbonyl-3,6-diazabicyclo[3.1.1]heptane] it was 23 nM.
`O=C([C@@H]1C[C@H]1c1ccccc1)N1CC2CC(C1)N2` showed a Ki of 4.4 nM.
The compound `O=C([C@@H]1C[C@H]1F)N1CC2CC(C1)N2` gave a Ki of 0.54 nM.
`C[C@@H]1C[C@H]1C(=O)N1CC2CC(C1)N2` showed a Ki of 0.08 nM.
As to `O=C([C@@H]1C[C@@H]1F)N1CC2CC(C1)N2`, the affinity, expressed as Ki, was 0.86 nM.
`O=C(C1CC12CCC2)N1CC2CC(C1)N2` (stereo not shown): the Ki came to 1.2 nM.
`CC1CC1C(=O)N1CC2CC(C1)N2` (stereo not shown) returned a Ki of 1.8 nM.
Same read-out and setting: in the case of `O=C(C1CC1)N1CC2CC(C1)N2` [3-cyclopropylcarbonyl-3,6-diazabicyclo[3.1.1]heptane] it was 2.3 nM.
The same measure, in the same setting: in the case of `O=C([C@H]1C[C@H]1F)N1CC2CC(C1)N2` [drawing 110] it was 1.1 nM; in that of `O=C(C1CC12CCCC2)N1CC2CC(C1)N2` (stereo not shown), 31 nM.
On the same count and under the same terms, as for `C[C@H]1C[C@@H]1C(=O)N1CC2CC(C1)N2` [drawing 157], the figure is 100 nM; as for `O=C(NCc1ccc(Cl)cc1Cl)N1CC2CC(C1)N2`, 24 nM; as for `[2H]C1([2H])C([2H])([2H])C1([2H])C(=O)N1CC2CC(C1)N2`, 0.24 nM.
`CCC1(CC)CC1C(=O)N1CC2CC(C1)N2` (stereo not shown) returned a Ki of 69 nM.
`O=C([C@H]1C[C@@H]1F)N1CC2CC(C1)N2` [drawing 165] had a Ki of 1.6 nM.
`O=C([C@@H]1C[C@H]1c1ccccc1)N1C2CNCC1C2` returned a Ki of 51 nM.
The compound `O=C(CCC(F)(F)F)N1C2CNCC1C2` showed a Ki of 72 nM.
